The test system of this test is malignant melanoma cell strains (P39) tumor. Description: Heterotransplantation of malignant melanoma cells in nude mice; PCNA and CD31 staining of the excised tumor. The test is classed as in vivo, nude mice (Balb/c Jcl-nu). Here is the method: EMP9 was synthesized by a known method and dissolved in saline. The solution was colored with addition of Evans blue at the final concentration of 0.25%.
Five-week old nude mice (Balb/c Jcl-nu, Japan Clea Inc.) were purchased, maintained in a germfree chamber for a week for acclimatization and then used. 5×10^6 cells of malignant melanoma cell strains (P39, Utsumi and Elkind, 1993) were suspended in a culture solution (0.1 ml) and the suspension was injected subcutaneously interscapularly into the mice. After a few weeks, formation of tumor was observed on the outer skin surface. The major axis×minor axis×height of the tumor was measured twice a week. The tumor was observed until its size became 6×7×7 mm, thereafter administration was started. After the administration, the size of the tumor was measured in a similar manner.
Four doses of 0.1 ml of a 0.5 mg/ml EMP9 solution were administered intraperitoneally at intervals of 1 hr. After 24 hr and 48 hr, 0.1 ml of the solution was administered similarly 4 times, respectively. On the 7th day from the first administration, the tumor was excised.
The excised tumor was fixed in Zamboni fixing liquid or frozen in liquid nitrogen. The tumor fixed in Zamboni fixing liquid was divided into several tissue masses. The plural samples collected from the respective masses were embedded to prepare tissue sections thereof. The proliferating cells were stained using PCNA antibody and the vascular endothelial cells were stained using CD31 antibody, respectively. Hematoxylin was used for nuclear staining. Each of the section specimens was observed under a microscope at 200-fold magnification. The cell number in 20 compartments wherein one compartment has an area of 17.6×10^−3 mm^2 was counted (the cell number was not less than 4,500). The cell proliferation ratio was calculated from the following equation and represented in [Table 1]. Furthermore, the number of blood vessel in 100 compartments was counted, and the average number per a compartment (13.1×10^−2 mm^2) was calculated and represented in [Table 1]. […]

“erythropoietin mimetic peptide 9 (GGTYSCHFAPLTWVCKPQGG) [EMP9, erythropoietin receptor antagonist]”: the “Proliferation ratio (%)” value (P39 melanoma tumor in nude mice, 0.1 ml of 0.5 mg/ml EMP9 intraperitoneally 4 times at 1 hr intervals, repeated after 24 hr and 48 hr, tumor excised on 7th day, PCNA staining, proliferating cells/living cells x100) is 3.03%. Further, the “Inhibitory effects on tumor proliferation and neovascular proliferation (conclusion in words)” value (conclusion from Table 1, significant difference versus saline group (p<0.05)) was “superior inhibitory effects on both tumor proliferation and neovascular proliferation”. In addition, the “Number of blood vessel (average ± standard error)” value (same regimen, CD31 staining, average number per compartment (13.1×10^−2 mm^2), 100 compartments counted) amounted to 0.64 ± 0.10.

Source of the values: patent US7053050B2, “Preventives/remedies for proliferative organ diseases chronic arthritic diseases, hypertrophic scar or keloid” (Yoshiko Yasuda, priority 2001, dated 2006).
